Molecules are shown by their SMILES. Where two headings read alike, the source gives them in different places.

Data set [1] relates to CYP2C9. The following applies: for % inhibition of CYP2C9 activity: tolbutamide 1 mM, rat liver microsomes; for 4′-hydroxytolbutamide: Sprague-Dawley, rat, 7.5 min, pH 7.4. For orientation: Liver microsomes are vesicles of endoplasmic reticulum, rich in cytochrome P450 enzymes.
Data set [2] is described as follows: In vivo study in rodents: fluvastatin pharmacokinetics with or without tamarixetin. The following applies: tamarixetin pretreatment versus control, rats.
Procedure: (§1) The test system used is the Sprague-Dawley rat.
(§2) After overnight fast, rats are anesthetized and prepared with a jugular catheter. […] Twelve blood samples (including pre dose blank) are collected over 24 hours—0, 10, 20, 40, 60, 120, 240, 360, 480, 720, 1080 and 1440 minutes. Each sample (0.5 to 0.6 mL blood) is collected into microfuge tubes containing 20 uL of 10 IU heparin (anti-coagulant). After separation, plasma samples are protected from light and stored at −80° C. freezer.
The subject of data set [3] is CYP2C9. In words: in vitro. The following applies: Sprague-Dawley, rat, microsomes.
The nature of data set [4]: in vivo. The following applies: Sprague-Dawley, rat, po, 1.5 mg/kg; for Cmax: Cmax of fluvastatin.
Procedure: as §1, §2
Data set [5] has as its target CYP2C9 (Homo sapiens, UniProt P11712). The following applies: cited from earlier work.
The conditions of data set [6]: rats; cited from earlier work.
Where [7] appears, read: pH 7.4, % inhibition of CYP2C9 activity.
The mark [8] stands for this setting: pH 7.4, % inhibition of tolbutamide metabolism in microsomes.

Chain of CYP2C9 (Homo sapiens, UniProt P11712) (P11712 whole entry): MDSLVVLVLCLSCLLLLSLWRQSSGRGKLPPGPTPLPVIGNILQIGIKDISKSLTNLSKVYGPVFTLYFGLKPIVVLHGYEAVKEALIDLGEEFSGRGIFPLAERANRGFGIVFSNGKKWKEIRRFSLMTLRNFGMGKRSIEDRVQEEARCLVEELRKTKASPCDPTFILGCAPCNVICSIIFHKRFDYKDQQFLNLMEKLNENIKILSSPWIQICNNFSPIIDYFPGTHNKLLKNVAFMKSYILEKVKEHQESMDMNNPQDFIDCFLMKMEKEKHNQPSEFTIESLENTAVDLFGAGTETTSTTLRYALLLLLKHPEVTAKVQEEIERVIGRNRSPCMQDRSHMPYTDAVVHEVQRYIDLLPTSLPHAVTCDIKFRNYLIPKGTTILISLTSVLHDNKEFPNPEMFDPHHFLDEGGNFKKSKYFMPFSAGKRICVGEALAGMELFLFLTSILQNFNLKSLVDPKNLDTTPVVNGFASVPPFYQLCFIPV

With `C=C(C)C1CC=C(C)CC1` (single isomer, unassigned; (+)) [(+)-Limonene], the “% inhibition of CYP2C9 activity” value in data set [1] (test article 1 μM) turned out to be 14.12%; in data set [1] (test article 10 μM) it was 10.55%; in data set [1] (test article 100 μM) it was 22.29%.
As for `COc1ccc([C@@H]2CC(=O)c3c(O)cc(O[C@@H]4O[C@H](CO[C@@H]5O[C@@H](C)[C@H](O)[C@@H](O)[C@H]5O)[C@@H](O)[C@H](O)[C@H]4O)cc3O2)cc1O` [Hesperidin], the “% inhibition of CYP2C9 activity” value in data set [1] (test article 1 μM) is reported as 2.57%; in data set [1] (test article 10 μM), 6.68%.
In the case of `O=c1cc(-c2ccc(O)c(O)c2)oc2cc(O)c([C@@H]3O[C@H](CO)[C@@H](O)[C@H](O)[C@H]3O)c(O)c12` [Homoorientin], the “% inhibition of CYP2C9 activity” value in data set [1] (test article 1 μM) is 3.37%; in data set [1] (test article 10 μM), 2.45%; in data set [1] (test article 100 μM) it was 20.19%.
In the case of `O=C1C[C@@H](c2ccc(O)cc2)Oc2cc(O)cc(O)c21` [Narigenin], the “% inhibition of CYP2C9 activity” value stood at 5.20% in data set [1] (test article 1 μM), 49.98% in data set [1] (test article 10 μM) and 79.70% in data set [1] (test article 100 μM).
As usually defined, the inhibition is the drop in the measured response relative to a control, in per cent. Take `COc1ccc(-c2oc3cc(O)cc(O)c3c(=O)c2O)cc1O` [Tamarixetin]: the “4′-hydroxytolbutamide” value in data set [1] (1 μM) amounted to 213.5696 ± 24.4309 ng; in data set [1] (10 μM), 43.1 ± 2.5372 ng; in data set [1] (100 μM), 35.49 ± 1.5825 ng. Moreover, the “change of terminal elimination rate constant (k) of fluvastatin” value in data set [2] is “no apparent changes”. Further, the inhibition at 7.5 min, 1 μM was 42% in data set [3] (pH 7.4, % inhibition); 42% in data set [3] (setting [7]); 42% in data set [3] (setting [8]). The inhibition at 7.5 min, 10 μM worked out at 88.2% in data set [3] (pH 7.4, % inhibition); 88.1% in data set [3] (setting [7]); 88.1% in data set [3] (setting [8]). The inhibition at 7.5 min, 100 μM in data set [3] (pH 7.4, % inhibition) is 90.2%; in data set [3] (setting [7]), 90.2%; in data set [3] (setting [8]) it was 90.2%.
The term AUC(0-inf) denotes the area under the concentration-time curve extrapolated to infinity. Broadly, the AUC(0-t) is the area under the concentration-time curve up to a stated or last time point. As a reminder, the MRT inf is a mean duration of stay, worked out from the concentration-time curve. What is called Tmax is the time from dosing to the highest level. What is called Cmax is the peak of the concentration-time curve. Turning to `CC(C)n1c(/C=C/C(O)CC(O)CC(=O)O)c(-c2ccc(F)cc2)c2ccccc21` (stereo not shown) [fluvastatin], in data set [4], the AUC(0-inf) turned out to be 0.95 ± 0.133 µg·h/mL, the AUC(0-t) came out at 0.711 ± 0.0815 µg·h/mL, the MRT inf came out at 15.8 ± 1.56 h and the Tmax is 4.7 ± 1.7 h. For the same molecule, the highest level in data set [4] (Cmax) was 0.0631 ± 0.0104 µg/mL. In data set [4] (control group), this molecule yielded a Cmax of 0.0631 ± 0.0104 µg/mL. The “share of metabolism for which liver CYP2C9 is responsible” value in data set [5] is reported as “approximately 80%”.
In data set [3] (pH 7.4), `O=c1c(O)c(-c2ccc(O)c(O)c2)oc2cc(O)cc(O)c12` [quercetin] returned an inhibition at 7.5 min, 1 μM of 15.1%; an inhibition at 7.5 min, 10 μM of 44.8%; an inhibition at 7.5 min, 100 μM of 91.9%.
Consider `CCCCNC(=O)NS(=O)(=O)c1ccc(C)cc1` [tolbutamide], for which the oral bioavailability in data set [6] is 90%.
Consider `O=C(O)/C=C/c1ccccc1` [trans-cinnamic acid], for which, in data set [3] (setting [7]), the inhibition at 7.5 min, 1 μM turned out to be 26.9%; the inhibition at 7.5 min, 10 μM is 15.8%; the inhibition at 7.5 min, 100 μM was 26.1%.
The matching figures for `C=CC(=C)CCC=C(C)C` [β-Myrcene]: 24.1%, 16.6% and 29.9%.
In the case of `O=c1cc(-c2ccccc2)oc2ccc3ccccc3c12` [β-Naphthoflavone], the “% inhibition of CYP2C9 activity” value in data set [1] (test article 1 μM) is 2.35%; in data set [1] (test article 10 μM), 4.64%.
